Assay results: paper PMC6863536, “Natural compounds as angiogenic enzyme thymidine phosphorylase inhibitors: In vitro biochemical inhibition, mechanistic, and in silico modeling studies” (PLoS ONE, 2019)
Entries after “also recorded” stand apart in the source; their conditions may differ. Where two headings read alike, the source gives them in different places.

What was measured:
[1] = biological target: T1, thymidine phosphorylase (TP), recombinant E. coli TP enzyme (Escherichia coli, UniProt P07650); assay: Thymidine phosphorylase inhibition assay (spectrophotometric); format: biochemical; conditions: 1.5 mM thymidine, 30°C, pH 7.0, 290 nm, test compounds screened at 500 μM
T1 construct: purchased Sigma Aldrich, USA
T1 sequence (P07650 whole entry): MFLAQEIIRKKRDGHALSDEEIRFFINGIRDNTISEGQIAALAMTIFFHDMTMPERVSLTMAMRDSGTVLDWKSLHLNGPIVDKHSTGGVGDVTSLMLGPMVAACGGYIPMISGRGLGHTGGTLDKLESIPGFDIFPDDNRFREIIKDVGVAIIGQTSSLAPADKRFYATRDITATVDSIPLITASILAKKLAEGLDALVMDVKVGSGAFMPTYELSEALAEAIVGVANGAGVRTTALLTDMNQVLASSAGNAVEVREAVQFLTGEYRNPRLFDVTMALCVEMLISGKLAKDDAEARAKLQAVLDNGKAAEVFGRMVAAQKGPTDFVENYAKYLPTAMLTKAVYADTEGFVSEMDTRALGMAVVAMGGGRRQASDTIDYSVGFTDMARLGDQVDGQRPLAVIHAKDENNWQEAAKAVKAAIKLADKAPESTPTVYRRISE
Method: In the current study, we have used commercially available recombinant E. coli TP enzyme, as human TP is not easily accessible.
Thymidine phosphorylase inhibition assay was carried out spectrophotometrically. Briefly, 0.058 U of TP enzyme (E.C. No. 2.4.2.4, E. coli) was incubated with 500 μM of test compounds at 30°C for 10 minutes. After that 1.5 mM of substrate thymidine was added to 96-well plate, and changes in absorbance were monitored for 10 minutes at 290 nm in microtiter plate reader (Spectramax, M5, Molecular Devices, CA, USA). Enzyme and substrate solution were prepared in 50 mM phosphate buffer of pH 7.0, while test compounds were prepared in DMSO (final concentration 4.5%).
Enzyme activity was measured under steady-state conditions by observing changes in absorbance for 10 min (at 290 nm) on microtiter plate reader (Spectra Max M5, Molecular Devices, CA, USA). Changes in absorbance upon addition of test compounds were analyzed with the SoftMax Pro 4.8 software which was purchased from Molecular Devices, CA, USA. To calculate the percent inhibition, following formula was used: % Inhibition = 100-Absorbance of test compound/Absorbance of control×100
Inhibitory potential of test compounds is represented in Figs 1–4 as IC50 value (Inhibitory concentration). […] It was calculated by measuring the effects of different concentrations of inhibitors on the degradation of thymidine. EZ-Fit, Enzyme kinetics software (purchased from Perrella Scientific, Inc., USA) was used to deduce the IC50 values.

[2] = biological target: T2, thymidine phosphorylase (TP) enzyme (Escherichia coli, UniProt P07650); assay: Mechanistic (kinetic) studies on TP, Lineweaver-Burk plot and secondary re-plot; format: biochemical, E. coli; conditions: for Type of inhibition: Lineweaver-Burk plot, substrate thymidine
T2 construct: purchased Sigma Aldrich, USA
T2 sequence (P07650 whole entry): as above
Method: In mechanistic studies, TP enzyme was incubated with different concentrations of inhibitors at 30°C for 10 min. Reaction was then initiated by adding four different concentrations of substrate, i.e. thymidine (0.1875–1.5 mM). Enzyme activity was measured under steady state conditions by measuring changes in absorbance for another 10 min at 30°C at 290 nm, on microtiter plate reader (Spectramax, M5, Molecular Devices, CA, USA). Every experiment is performed in triplicate.
Lineweaver-Burk plot was used to determine the type of inhibition, where the reciprocal of rate of the reaction were plotted against the reciprocal of substrate concentration. Dissociation constant (Ki) were determined by secondary re-plot of Lineweaver-Burk plots. Kinetic data was analysed by GraFit 7 data analysis software (purchased from Erithacus Software Limited, UK).

[3] = In vitro MTT cytotoxicity assay; format: cell-based, mouse; conditions: mouse, 3T3 mouse fibroblast cells, 3T3 cells, 48 hrs incubation, read-out: Cytotoxicity IC50 (μM ± SD)
Method: (§1) The reduction of MTT can only occur in metabolically active cell, so the enzyme activity is actually a measure of cell viability.
(§2) Briefly, the mouse fibroblast cells (3T3) were cultured in DMEM media containing 5% FBS, 100 IU/ mL penicillin, and 100 μg/ mL streptomycin. Cell suspension (5×10^4cells/ mL) was dispensed in flat-bottomed 96-well plates, and incubated at 37°C and with 5% CO2. After the overnight incubation, old media was aspirated and fresh media containing different concentrations of compounds (prepared in DMSO) were added, and plate was further incubated for 48 hrs. After that, MTT dye (0.5 mg/ mL) was added into each well, and the plate was further incubated for 4 hrs. Following this, DMSO (100 μL) was added into each well, and the level of MTT reduction to formazan with in the cells was calculated by taking the absorbance at 540 nm using a micro plate reader (Spectra Max plus, Molecular Devices, CA, USA).
(§3) Cellular viability was measured for 10 min, at 570 nm on microtiter plate reader. Changes in absorbance upon addition of test compounds were analyzed with the SoftMax Pro 4.8 software which was purchased from Molecular Devices, CA, USA. Percent inhibition was calculated using the formula mentioned earlier.
(§4) It was calculated by measuring the effects of different concentrations of inhibitors on the growth of cells. EZ-Fit, Enzyme kinetics software was used to deduce the IC50 values.

[4] = system: mouse fibroblast (3T3) cell line; assay: In vitro MTT cytotoxicity assay; format: cell-based; conditions: 3T3 cells, 48 hrs incubation
Method: as §1, §2, §3, §4

[5] = read-out: TP Inhibition IC50 (μM ± SEM)
[6] = thymidine 0.1875–1.5 mM, 30°C, secondary re-plot of Lineweaver-Burk plot, read-out: Ki ± SEM (dissociation constant)

Row | SMILES | IC50 [1, 5] [µM] | Type of inhibition [2] | Ki [2, 6] [µM] | also measured
1 | CC1(C)C=Cc2c(ccc3ccc(=O)oc23)O1 [Compound 8] | 181.1 ± 0.6 | Uncompetitive | 162 ± 0.001 | –
2 | O=c1cc(-c2ccccc2)oc2cc(O)cc(O)c12 [Compound 4] | – | – | – | TP Inhibition IC50 (μM ± SEM) [1]: inactive
3 | COc1c2ccoc2cc2oc(=O)ccc12 [Compound 7] | 344.2 ± 1.2 | – | – | –
4 | O=c1[nH]c(=O)c2cc[nH]c2[nH]1 [7-Deazaxanthine, 7-deazaxanthine, reference compound] | – | Non-competitive | – | –
5 | O=c1cc(-c2ccccc2)oc2ccccc12 [Compound 1] | 195.1 ± 1.1 | Uncompetitive | 225 ± 0.002 | IC50 at 48 h [3]: 29.1 ± 0.61 µM
6 | N=C1CCCN1Cc1[nH]c(=O)[nH]c(=O)c1Cl [Tipiracil, tipiracil, reference compound] | 0.014 ± 0.002 | – | – | –
7 | O=c1cc(-c2ccc(O)cc2)oc2cc(O)cc(O)c12 [Compound 3] | – | – | – | TP Inhibition IC50 (μM ± SEM) [1]: inactive
8 | O=c1ccc2ccccc2o1 [Compound 6, coumarin] | 420 ± 6.15 | Uncompetitive | 171 ± 0.001 | –
9 | COc1c(O)cc2oc(-c3ccc(O)c(O)c3)c(O)c(=O)c2c1O [Compound 5] | 76.8 ± 1.1 | Mixed | 341.1 ± 0.01 | –
10 | COc1cc2ccc(=O)oc2cc1O [Compound 9] | 193.4 ± 1 | Non-competitive | 419 ± 0.001 | –
11 | C[C@H](Cc1ccc(O)c(O)c1)[C@@H](C)Cc1ccc(O)c(O)c1 [Compound 18, Masoprocol] | 44 ± 0.5 | competitive inhibitor | 25.6 ± 0.008 | Cytotoxicity IC50 (μM ± SD) [4]: non-toxic; also recorded: non-cytotoxic
12 | COc1cc(O)c2c(=O)cc(-c3c(OC)ccc(O)c3O)oc2c1 [Compound 2] | 113 | – | – | –
13 | O=C(O)/C=C/c1ccccc1 [Compound 15, Cinnamic acid] | – | – | – | IC50 ([1]; TP Inhibition IC50 (μM ± SEM)): 349.7 ± 1.4 µM
14 | COc1cc2ccc(=O)oc2cc1O[C@@H]1O[C@H](CO[C@@H]2OC[C@](O)(CO)[C@H]2O)[C@@H](O)[C@H](O)[C@H]1O [Compound 10] | – | Uncompetitive | – | IC50 ([1]; TP Inhibition IC50 (μM ± SEM)): 295.2 ± 2 µM; Ki [2]: 145 ± 0.001 µM
15 | O=C(O)c1cc(O)c(O)c(O)c1 [Compound 16, Gallic acid] | – | – | – | TP Inhibition IC50 (μM ± SEM) [1]: inactive
16 | C[C@@H]1C[C@@H]([C@H](O)CC2CC(=O)NC(=O)C2)C(=O)[C@@H](C)C1 [Cyclohexamide, cycloheximide, reference compound] | – | – | – | IC50 ([4]; read-out: Cytotoxicity IC50 (μM ± SD)): 0.2 ± 0.1 µM
17 | COc1cc(C(=O)O)ccc1O [Compound 17, Vanillic acid] | – | – | – | TP Inhibition IC50 (μM ± SEM) [1]: inactive
18 | COc1cc2c(cc1OC)-c1c(OC)c(OC)cc3c1[C@H](C2)N(C)CC3 [Compound 11, Glaucine HBr] | 238.5 ± 2.1 | Uncompetitive | 180 ± 0.01 | –
